Columns and labels:
MDA-MB-468 = test: NCI-60 screening, one-dose (10 µM) and five-dose, SRB; format: cell-based, human; settings: Homo sapiens, MDA-MB-468, 10 μM; MDA-MB-468, Breast Cancer; read-out: Growth percentage
Source text: Control cells Test cells FLD
available usually at NCI library.
An aliquot of frozen drug concentrate is […]

ACHN = test: as above; format: cell-based, human; settings: Homo sapiens, 10 μM, Renal Cancer, read-out: Growth percentage
CCRF-CEM = test: as above; format: cell-based, human; settings: Homo sapiens, 10 μM, Leukemia, read-out: Growth percentage
SK-OV-3 = test: as above; format: cell-based, human; settings: Homo sapiens; 10 μM; SK-OV-3, Ovarian Cancer; read-out: Growth percentage
MDA-MB-435 = test: as above; format: cell-based; settings: Homo sapiens, MDA-MB-435, read-out: Growth percentage, 10 μM; MDA-MB-435, Melanoma
[1] = tested on: 60 human cancer cell lines; test: NCI-60 screening, full panel (mean growth, MID a, ranges over all lines); settings: Homo sapiens, read-out: Mean growth percentage
HS 578T = test: NCI-60 screening, one-dose (10 µM) and five-dose, SRB; format: cell-based, human; settings: Homo sapiens, 10 μM, Breast Cancer, read-out: Growth percentage
SW-620 = test: as above; format: cell-based, human; settings: Homo sapiens; 10 μM; SW-620, Colon Cancer; read-out: Growth percentage
MOLT-4 = test: as above; format: cell-based, human; settings: Homo sapiens; 10 μM; MOLT-4, Leukemia; read-out: Growth percentage
A549/ATCC = test: as above; format: cell-based, human; settings: Homo sapiens, 10 μM, Non-Small-Cell Lung Cancer, read-out: Growth percentage
SK-MEL-2 = test: as above; format: cell-based, human; settings: Homo sapiens; 10 μM; SK-MEL-2, Melanoma; read-out: Growth percentage
BT-549 = test: as above; format: cell-based; settings: Homo sapiens; 10 μM; BT-549, Breast Cancer; read-out: Growth percentage
SN12C = test: as above; format: cell-based, human; settings: Homo sapiens, 10 μM, Renal Cancer, read-out: Growth percentage
NCI-H226 = test: as above; format: cell-based, human; settings: Homo sapiens; 10 μM; NCI-H226, Non-Small-Cell Lung Cancer; read-out: Growth percentage
OVCAR-3 = test: as above; format: cell-based; settings: Homo sapiens; 10 μM; OVCAR-3, Ovarian Cancer; read-out: Growth percentage
KM12 = test: as above; format: cell-based, human; settings: Homo sapiens, KM12, 10 μM; KM12, Colon Cancer; read-out: Growth percentage
SF-539 = test: as above; format: cell-based, human; settings: Homo sapiens, SF-539, 10 μM; SF-539, CNS Cancer; read-out: Growth percentage
HL-60(TB) = test: as above; format: cell-based, human; settings: Homo sapiens
NCI/ADR-RES = test: as above; format: cell-based, human; settings: Homo sapiens, 10 μM, Ovarian Cancer, read-out: Growth percentage
OVCAR-8 = test: as above; format: cell-based, human; settings: Homo sapiens; 10 μM; OVCAR-8, Ovarian Cancer; read-out: Growth percentage
UACC-257 = test: as above; format: cell-based, human; settings: Homo sapiens; 10 μM; UACC-257, Melanoma; read-out: Growth percentage
HCT-15 = test: as above; format: cell-based, human; settings: Homo sapiens; 10 μM; HCT-15, Colon Cancer; read-out: Growth percentage
HOP-62 = test: as above; format: cell-based, human; settings: Homo sapiens, HOP-62, 10 μM; HOP-62, Non-Small-Cell Lung Cancer; read-out: Growth percentage
TK-10 = test: as above; format: cell-based, human; settings: Homo sapiens; 10 μM; TK-10, Renal Cancer; read-out: Growth percentage
HT29 = test: as above; format: cell-based, human; settings: Homo sapiens, HT-29; 10 μM; HT29, Colon Cancer; read-out: Growth percentage
NCI-H522 = test: as above; format: cell-based, human; settings: Homo sapiens; 10 μM; NCI-H522, Non-Small-Cell Lung Cancer; read-out: Growth percentage
SNB-19 = test: as above; format: cell-based; settings: Homo sapiens; 10 μM; SNB-19, CNS Cancer; read-out: Growth percentage

SMILES | activity at 10 µM (MDA-MB-468) [%] | activity at 10 µM (ACHN) [%] | activity at 10 µM (CCRF-CEM) [%] | activity at 10 µM (SK-OV-3) [%] | activity at 10 µM (MDA-MB-435) [%] | activity at 10 µM [1] [%] | activity at 10 µM (HS 578T) [%] | activity at 10 µM (SW-620) [%] | activity at 10 µM (MOLT-4) [%] | activity at 10 µM (A549/ATCC) [%] | activity at 10 µM (SK-MEL-2) [%] | activity at 10 µM (BT-549) [%] | activity at 10 µM (SN12C) [%] | activity at 10 µM (NCI-H226) [%] | activity at 10 µM (OVCAR-3) [%] | activity at 10 µM (KM12) [%] | activity at 10 µM (NCI/ADR-RES) [%] | activity at 10 µM (OVCAR-8) [%] | activity at 10 µM (UACC-257) [%] | activity at 10 µM (HCT-15) [%] | other results
CC(=O)c1sc(SCC(=O)N2CCN(c3cc4c(cc3F)c(=O)c(C(=O)O)cn4C3CC3)CC2)nc1C [Compound 4a, 7-(4-(2-((5-Acetyl-4-methylthiazol-2-yl)thio)acetyl)piperazin-1-yl)-1-cyclopropyl-6-fluoro-4-oxo-1,4-dihydroquinoline-3-carboxylic Acid] | 111 | 98.3 | 96.2 | 101 | 99.4 | 102 | 87.4 | 113 | 102 | 104 | 97.4 | 98.3 | 98 | 117 | 98.8 | 102 | 108 | 105 | 102 | 102 | activity at 10 µM (SF-539): 86.4%; activity at 10 µM (HL-60(TB); HL-60, 10 μM, HL-60(TB), Leukemia, read-out: Growth percentage): 102%; activity at 10 µM (HOP-62): 95.6%; activity at 10 µM (TK-10): 97.9%; activity at 10 µM (HT29): 104%; activity at 10 µM (NCI-H522): 98.9%; activity at 10 µM (SNB-19): 102%
COc1cccc(/C=C/C(=O)c2sc(SCC(=O)N3CCN(c4cc5c(cc4F)c(=O)c(C(=O)O)cn5C4CC4)CC3)nc2C)c1OC [Compound 4k, (E)-1-Cyclopropyl-7-(4-(2-((5-(3-(2,3-dimethoxyphenyl)acryloyl)-4-methylthiazol-2-yl)thio)acetyl)piperazin-1-yl)-6-fluoro-4-oxo-1,4-dihydroquinoline-3-carboxylic Acid] | 48.5 | 105 | 72 | 76.7 | 53.2 | 77.9 | 92.8 | 90.7 | 80.4 | 106 | 93.4 | 63.3 | 87.5 | 102 | 84.5 | 4.4 | 112 | 87.6 | 102 | 64.5 | IC50 (HL-60(TB); HL-60, leukemia HL-60): 2950 nM; activity at 10 µM (HOP-62): -20.2%; activity at 10 µM (TK-10): 105%; activity at 10 µM (HT29): 82.6%; activity at 10 µM (NCI-H522): 104%; activity at 10 µM (SNB-19): 87.2%
